Where “and” joins values, the source holds several entries; their conditions need not be identical. Equal values may be shown once.
Tests used:
[1] = tested on: (BHPI-sensitive) parental T47D cells; assay: Growth of parental T47D cells (MTS); assay type: cell-based, human; settings: 100 nM and 1 μM, 4 days
Procedure: (§1) ERα containing T47D human breast cancer cells able to survive in 1 μM BHPI were selected by clonal outgrowth. The effect of 100 nM and 1 μM BHPI and (−)-105 on growth of the (BHPI-sensitive) parental T47D cells and partially BHPI-resistant T47D clones 1, 3, 8, and 11 was evaluated. 4,000 cells/well were plated. Cell number was determined by MTS assay from a standard curve of absorbance versus cell number. […] Thus, in 4 days (−)-105 killed some, but not all, of the resistant cells.

MCF-7 tumors = assay: MCF-7 orthotopic tumor model; assay type: in vivo, mouse
Procedure: FIG. 39. SERK-F6 eradicates wild-type ERα tumors via hyperactivation of aUPR. a, MCF-7 orthotopic tumors were established in Nu/J ovariectomized mice supplemented with a 60 day E2 pellet (0.36 mg) and grown to ˜400 mm^3 (28 days to establish), randomized, then treated with vehicle daily (n=3), vehicle weekly (n=3), fulv. weekly (5 mg/mouse, s.c., n=6), SERK-F6 daily (10 or 40 mg/kg p.o.). Vehicle arms were averaged. p values: *: p<0.05, **: p<0.01, ***: p<0.001, ****: p<0.0001. Tumor images were taken at the end of the study (day 21) and are representative of all tumors (n=6). b-e, MCF-7 cells were orthotopically bi-laterally grafted and tumors were grown until total tumor burden was ˜ 400 mm^3 prior to daily treatment with vehicle or SERK-F6 (40 mg/kg p.o.). Mice (n=5 per arm) were sacrificed after 3 days (b,c) and 7 days (d,e) and tumors harvested. […] Vinculin (Vin) was used as a loading control. […] Error bars represent S.E.M.
(§2) FIG. 40. SERK-F6 is tolerated, reaches biologically relevant concentrations, and crosses the blood-brain barrier in vivo. a, Serum concentrations of SERK-F6 after indicated doses, route of administration, and time. Concentration was determined via LC/MS/MS analysis. […] AUC: Area Under the Curve, Cmax: maximum concentration, t1/2: half-life. c,d, Mice (CD-1) were treated with the indicated doses and times, then sacrificed and their serum and brains collected. Concentrations were determined via LC/MS/MS analysis. […] Treatment arms: vehicle daily (n=3), vehicle weekly (n=3), fulv. weekly (5 mg/mouse, s.c., n=6), SERK-F6 daily (10 or 40 mg/kg p.o.). Vehicle arms were combined. g, Mass of tumors harvested from mice. h, observed murine weight during this MCF-7 study (n=6). i,j, Tumor measurements for MCF-7 bilateral orthotopic model (n=4-5).
To probe the efficacy of SERK-F6 for killing ERα positive tumors, large MCF-7 tumors were grown and then intervened with therapy. […] The mice were then sacrificed prior to complete tumor eradication.

[2] = Pharmacokinetics, brain penetration and tolerability in mice; assay type: in vivo, mouse
Procedure: as §2
The pharmacokinetics of SERK-F6 was measured in mice (FIG. 40A-B).

[3] = tested on: partially BHPI-resistant T47D clones 1, 3, 8, and 11; assay: Growth of partially BHPI-resistant T47D clones (MTS); assay type: cell-based, human; settings: 100 nM and 1 μM, 4 days
Procedure: as §1

[4] = tested on: MCF-7 ERα Y537S-luciferase cells; assay: Long-term cell culture experiment, MCF-7Y537S cells; assay type: cell-based, human; settings: conditions as FIG. 15
[5] = tested on: ATP levels in TYS-Luc cells; assay: Intracellular ATP levels; assay type: cell-based, human; settings: 1,000 nM
Procedure: TYS-Luc cells were maintained DMSO vehicle (Veh), 1,000 nM BHPI, 1,000 nM (−)-105 with and without 10,000 nM thapsigargin (THG) for the indicated times. ATP levels were determines using a kit and relative ATP levels were from a standard curve. […] (n=3±SEM).

[6] = tested on: TYS-Luc (T47DERαY537S-Luc human breast cancer cells) orthotopic tumors; assay: Orthotopic TYS-Luc mouse xenograft, bioluminescent imaging (BLI) of tumor flux; assay type: in vivo
Procedure: In a treatment and vehicle-controlled mouse tumor study, human breast cancer cells were engineered to contain both the lethal ERαY537S mutation found in metastatic breast cancer, and the gene for firefly luciferase—when the appropriate chemical is added, the firefly luciferase breaks down the chemical and light is produced. Using a sensitive detector called an imaging system, this allows us to image the tumors inside live mice. This is called bioluminescent imaging, or BLI. Large tumors were allowed to form. Then (−)-105 was injected daily under the skin for three weeks. Using the imaging system, the effect of (−)-105 on the tumors was monitored. At the same time the effect of the vehicle in which (−)-105 was dissolved on tumors was also monitored.
A study was performed to determine what happens after stopping treatment with (−)-105 (Table 2). The study was designed to show whether the micro-tumors would remain dormant, or whether they would regrow. At the end of the three-week treatment, there is residual material that gives off a tiny amount of light which are termed “micro-tumors”. Based on sensitivity of the imaging system, it is believed these micro-tumors contain anywhere from 0-˜1,000 cancer cells; the micro-tumors will not be visible to the naked eye. Seeing them requires the powerful imaging system, or a microscope. To test whether these cells are either dead, or no longer dividing and are dormant, the cells two and 4 weeks after they stopped receiving any treatment were imaged. This study tested whether growing cancer cells have been eradicated; this study continues.
In a 3-week study, large breast tumors were present at start of treatment and regressed as shown in the image of FIG. 17. The study was performed using Orthotopic TYS-Luc (injected cells: T47DERα Y537-Luc human breast cancer cells), e.g., the most lethal ERα mutation in human in metastatic breast cancer. Tumors were grown in NSG mice. Further details are provided in the Examples.
Experimental Details of the Xenografts: TYS-Luc cells (5,000,000 cells in Matrigel) were injected into the upper mammary fat pad of ovariectomized female NSG (SCID) mice (Jackson labs). After 10 weeks, on day 0, large tumors (size range: 100-600 mm^3) were present. Mice were treated with the vehicle used to dissolve (−)-105, or (−)-105 at 40 mg/kd daily by subcutaneous injection. For bioluminescent imaging (BLI) of the tumors, the mice were anesthetized with isoflurane and Lucerfin, the luciferase substrate, was injected into the mice. Flux, the total member of light photons hitting the detector in one second was measured using an IVIS ([…]). Shown is the flux (in millions of units per second) for the entire area containing each tumor, or an equivalent area when the tumor is tiny or undetectable and the percent change in tumor size at each time a measurement was taken (day 0, day 3, week 1, week 2, week 3). Then treatment was stopped, and another measurement was taken two weeks letter. Note that tumors were also measured with calipers. […] After three days all the (−)-105 tumors has declined to undetectable using calipers.

[7] = after 3 days of treatment, all 5 mice

Structure (SMILES): O=C1Nc2c(C(F)(F)F)cccc2C1(c1ccc(O)cc1)c1ccc(OC(F)(F)F)cc1 (single isomer, unassigned; (-)) [(−)-105, 3-(4-hydroxyphenyl)-3-(4-(trifluoromethoxy)phenyl)-7-(trifluoromethyl)indolin-2-one]
- growth / killing of parental T47D cells [1]: killed all the T47D cells
- in-vivo UPR markers in tumors (MCF-7 tumors; 40 mg/kg p.o., tumors harvested before eradication): increases in P-PERK and P-eiF2alpha levels
- effect on large established MCF-7 tumors (MCF-7 tumors; mouse, in vivo): dramatic tumor regressions
- blood-brain barrier penetration [2]: blood-brain barrier penetrant
- tolerability in vivo [2]: well-tolerated
- growth of the BHPI-resistant clones [3]: completely blocked the growth of the resistant clones
- effect on MCF-7Y537S cells in long-term experiments [4]: eradicates
- intracellular ATP levels [5]: reduces intracellular ATP levels
- micro-tumor regrowth after stopping treatment ([6]; 4 weeks after stopping treatment): NO “MICRO-TUMOR” REGROWTH
- tumor shrinkage (regression) by BLI, 4 of the 5 tumors ([6]; after 3 days of treatment, 4 of 5 tumors): more than 99.9%
- tumor shrinkage (regression) by BLI, all five tumors [6, 7]: more than 99%
- tumor size using calipers [6, 7]: undetectable
- tumor shrinkage by BLI, 3 of the remaining 4 mice ([6]; after three weeks): more than 99.9%
- tumor change in one mouse (complete regression) ([6]; after three weeks, one mouse): −100%
- Day 0 Flux ([6]; per mouse, day 0 (start of treatment, baseline)): 2,130 millions of photons/sec and 277 millions of photons/sec and 72.6 millions of photons/sec and 1,880 millions of photons/sec and 1,650 millions of photons/sec
- Day 14 % Change in Tumor Flux ([6]; per mouse, day 14 vs day 0): 99.66%
- health of the treated mice / toxicity ([6]; three-week treatment): No toxicity
- micro-tumor regrowth after stopping treatment ([6]; two weeks after treatment was stopped): the microtumors had not started growing again
- tumor size using calipers ([6]; within seven days, all 5 tumors): undetectable
